Where “and” joins values, the source holds several entries; their conditions need not be identical. Equal values may be shown once. Toxic doses and inconclusive results are not listed.
System: P388 leukemia ip, CD2F1 mice, survival T/C
Experiment: NCI In Vivo Anticancer Drug Screen. Data for tumor model P388 Leukemia (intraperitoneal) in CD2F1 (CDF1) mice
Details: endpoint: median survival time, higher = longer survival
Summary of the method: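 Mice carrying the transplanted tumor received test compound or vehicle. Survival was recorded in each group, and the value is the treated-group measurement divided by that of the vehicle-treated control group.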

[1] = dose: 50.0 mg/kg/injection, schedule: Q01DX005 (ip), vehicle: saline with Tween-80
[2] = dose: 6.25 mg/kg/injection, schedule: Q01DX009 (ip), vehicle: saline with Tween-80
[3] = dose: 12.5 mg/kg/injection, schedule: Q01DX009 (ip), vehicle: saline with Tween-80

SMILES: CN(C)CCCNc1nc(NCCCN(C)C)c2nc(-c3ccccc3)c(-c3ccccc3)nc2n1
- T/C (dose: 12.5 mg/kg/injection, schedule: Q01DX005 (ip), vehicle: saline with Tween-80): 97 % of control
- T/C (dose: 25.0 mg/kg/injection, schedule: Q01DX005 (ip), vehicle: saline with Tween-80): 88 % of control
- T/C [1]: 88 % of control

SMILES: CCOC(=O)CC(CC(=O)OCC)(C(=O)OCC)C(=O)OCC
- T/C (dose: 50.0 mg/kg/injection, schedule: Q01DX009 (ip), vehicle: saline with Tween-80): 92 % of control
- T/C (dose: 100.0 mg/kg/injection, schedule: Q01DX009 (ip), vehicle: saline with Tween-80): 100 % of control
- T/C (dose: 200.0 mg/kg/injection, schedule: Q01DX009 (ip), vehicle: saline with Tween-80): 96 % of control
- T/C (dose: 400.0 mg/kg/injection, schedule: Q01DX009 (ip), vehicle: saline with Tween-80): 100 % of control

SMILES: CC1=C(C)CN(CCC(=O)O)C(C(N)=O)C1 (configuration not stated)
- T/C (dose: 50.0 mg/kg/injection, schedule: Q01DX005 (ip), vehicle: saline): 100 % of control
- T/C (dose: 100.0 mg/kg/injection, schedule: Q01DX005 (ip), vehicle: saline): 107 % of control
- T/C (dose: 200.0 mg/kg/injection, schedule: Q01DX005 (ip), vehicle: saline): 100 % of control

SMILES: CC(=O)OC1COC(Nc2cc(=O)n(C)c(=O)[nH]2)C(OC(C)=O)C1OC(C)=O (configuration not stated)
- T/C (dose: 100.0 mg/kg/injection, schedule: Q01DX001 (ip), vehicle: saline with Tween-80): 101 % of control
- T/C (dose: 200.0 mg/kg/injection, schedule: Q01DX001 (ip), vehicle: saline with Tween-80): 100 % of control
- T/C (dose: 400.0 mg/kg/injection, schedule: Q01DX001 (ip), vehicle: saline with Tween-80): 95 % of control

SMILES: Cc1ccc(C(=O)NC2c3ccccc3Oc3ccccc32)cc1
- T/C [1]: 90 % of control
- T/C (dose: 100.0 mg/kg/injection, schedule: Q01DX005 (ip), vehicle: saline with Tween-80): 86 % of control

SMILES: Oc1cc2c(cc1O)CN1CCc3cc(O)c(O)cc3C1C2 (configuration not stated)
- T/C (dose: 100.0 mg/kg/injection, schedule: Q01DX009 (ip), vehicle: saline): 114 % of control
- T/C (dose: 200.0 mg/kg/injection, schedule: Q01DX009 (ip), vehicle: saline): 109 % of control
- T/C (dose: 400.0 mg/kg/injection, schedule: Q01DX009 (ip), vehicle: saline): 101 % of control

SMILES: Cc1ccc(-n2nc(C)c3c(N)nc(N)nc32)c(Cl)c1
- T/C (dose: 100.0 mg/kg/injection, schedule: Q04DX003 (ip), vehicle: Klucel (hydroxypropylcellulose) (HPC)): 101 % of control
- T/C (dose: 200.0 mg/kg/injection, schedule: Q04DX003 (ip), vehicle: Klucel (hydroxypropylcellulose) (HPC)): 101 % of control
- T/C (dose: 400.0 mg/kg/injection, schedule: Q04DX003 (ip), vehicle: Klucel (hydroxypropylcellulose) (HPC)): 103 % of control

SMILES: COC1=C(N)C(=O)c2ncccc2C1=O
- T/C (dose: 3.12 mg/kg/injection, schedule: Q01DX009 (ip), vehicle: saline with Tween-80): 101 % of control
- T/C (dose: 4.0 mg/kg/injection, schedule: Q01DX009 (ip), vehicle: DMSO): 100 % of control
- T/C [2]: 95 % of control
- T/C (dose: 8.0 mg/kg/injection, schedule: Q01DX009 (ip), vehicle: DMSO): 108 % of control
- T/C [3]: 94 % of control
- T/C (dose: 16.0 mg/kg/injection, schedule: Q01DX009 (ip), vehicle: DMSO): 102 % of control

SMILES: O=[N+]([O-])c1ccc(/C=C/C=C/C=C/C=C/c2ccc(S(=O)(=O)F)cc2Cl)c(Cl)c1
- T/C (dose: 15.0 mg/kg/injection, schedule: Q01DX005 (ip), vehicle: saline with Tween-80): 99 % of control
- T/C (dose: 30.0 mg/kg/injection, schedule: Q01DX005 (ip), vehicle: saline with Tween-80): 104 % of control
- T/C (dose: 60.0 mg/kg/injection, schedule: Q01DX005 (ip), vehicle: saline with Tween-80): 92 % of control and 98 % of control

SMILES: COc1ccc(C2(c3ccc(OC)cc3)N=C(N(C)C)NC2=O)cc1
- T/C (dose: 50.0 mg/kg/injection, schedule: Q04DX002 (ip), vehicle: saline with Tween-80): 102 % of control
- T/C (dose: 100.0 mg/kg/injection, schedule: Q04DX002 (ip), vehicle: saline with Tween-80): 97 % of control
- T/C (dose: 200.0 mg/kg/injection, schedule: Q04DX002 (ip), vehicle: saline with Tween-80): 94 % of control

SMILES: CCCCCCCCCCCC(=O)NO
- T/C (dose: 3.13 mg/kg/injection, schedule: Q01DX009 (ip), vehicle: saline with Tween-80): 94 % of control
- T/C [2]: 99 % of control
- T/C [3]: 101 % of control
- T/C (dose: 25.0 mg/kg/injection, schedule: Q01DX009 (ip), vehicle: saline with Tween-80): 95 % of control

SMILES: O=S(=O)(O)O.[NH-]CC([NH-])c1ccccc1.[Pt+2] (configuration not stated)
- T/C (dose: 6.25 mg/kg/injection, schedule: Q04DX002 (ip), vehicle: saline with Tween-80): 184 % of control
- T/C (dose: 12.5 mg/kg/injection, schedule: Q04DX002 (ip), vehicle: saline with Tween-80): 88 % of control

SMILES: O=C1C=C(NCc2ccccc2)CCC1
- T/C (dose: 1.56 mg/kg/injection, schedule: Q01DX009 (ip), vehicle: saline): 109 % of control
- T/C (dose: 3.12 mg/kg/injection, schedule: Q01DX009 (ip), vehicle: saline): 113 % of control
- T/C (dose: 6.25 mg/kg/injection, schedule: Q01DX009 (ip), vehicle: saline): 100 % of control

Reference: PubChem BioAssay AID330 (DTP/NCI, 2004)
